According to PubChem BioAssay AID248 (DTP/NCI, 2004):
Toxic doses and inconclusive results are not listed. Cut-off read from the data, not from the text of the source: active = T/C of 150% or more; inactive = T/C below 125%.

System: L1210 leukemia ip in BDF1 mice, survival T/C
Test: NCI In Vivo Anticancer Drug Screen. Data for tumor model L1210 Leukemia (intraperitoneal) in B6D2F1 (BDF1) mice
Details: endpoint: mean survival time, higher = longer survival
How it was run: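 Tumor was transplanted into mice, which were then dosed with test compound or vehicle alone. Survival was recorded for each group, and the treated figure was expressed relative to the control figure.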

[1] = dose: 75.0 mg/kg/injection, schedule: Q01DX001 (ip), vehicle: carboxymethylcellulose (CMC)
[2] = dose: 50.0 mg/kg/injection, schedule: Q01DX009 (ip), vehicle: saline with Tween-80
[3] = dose: 100.0 mg/kg/injection, schedule: Q01DX009 (ip), vehicle: saline with Tween-80
[4] = dose: 200.0 mg/kg/injection, schedule: Q01DX009 (ip), vehicle: saline with Tween-80
[5] = dose: 100.0 mg/kg/injection, schedule: Q01DX001 (ip), vehicle: saline
[6] = dose: 200.0 mg/kg/injection, schedule: Q01DX001 (ip), vehicle: saline
[7] = dose: 100.0 mg/kg/injection, schedule: Q01DX009 (ip), vehicle: saline
[8] = dose: 200.0 mg/kg/injection, schedule: Q01DX009 (ip), vehicle: saline
[9] = dose: 400.0 mg/kg/injection, schedule: Q01DX001 (ip), vehicle: saline

Measured: T/C

O=S(=O)(OCCCC1CC2C=CC1C2)c1ccc(Br)cc1 (configuration not stated)
inactive: [1] 104 % of control | dose: 75.0 mg/kg/injection, schedule: Q04DX003 (ip), vehicle: carboxymethylcellulose (CMC) 89 % of control | dose: 150.0 mg/kg/injection, schedule: Q01DX001 (ip), vehicle: carboxymethylcellulose (CMC) 91 % of control | dose: 150.0 mg/kg/injection, schedule: Q04DX003 (ip), vehicle: carboxymethylcellulose (CMC) 100 % of control | dose: 300.0 mg/kg/injection, schedule: Q04DX003 (ip), vehicle: carboxymethylcellulose (CMC) 98 % of control

COC1C(OC(C)=O)C(OC(C)=O)C(OC(C)=O)C(OC(C)=O)C1OC(C)=O (configuration not stated)
inactive: [2] 94 % of control | [3] 98 % of control | [4] 88 % of control

O=C1Nc2ccccc2C12Nc1cccnc1N2 (configuration not stated)
inactive: dose: 100.0 mg/kg/injection, schedule: Q01DX001 (ip), vehicle: saline with Tween-80 97 % of control | dose: 200.0 mg/kg/injection, schedule: Q01DX001 (ip), vehicle: saline with Tween-80 87 % of control

N#Cc1cn(C2OC(CO)C(O)C2O)c2ncnc([Se]Cc3ccc([N+](=O)[O-])cc3)c12 (configuration not stated)
inactive: dose: 3.12 mg/kg/injection, schedule: Q01DX005 (ip), vehicle: saline 109 % of control | dose: 6.25 mg/kg/injection, schedule: Q01DX005 (ip), vehicle: saline 106 % of control | dose: 12.5 mg/kg/injection, schedule: Q01DX005 (ip), vehicle: saline 102 % of control

Clc1cc2n[nH]nc2c(SCc2ccccc2)n1
inactive: dose: 50.0 mg/kg/injection, schedule: Q01DX005 (ip), vehicle: saline with Tween-80 101 % of control | dose: 100.0 mg/kg/injection, schedule: Q01DX005 (ip), vehicle: saline with Tween-80 90 % of control | dose: 200.0 mg/kg/injection, schedule: Q01DX005 (ip), vehicle: saline with Tween-80 97 % of control

CC1(c2ccc[n+](CC(=O)c3ccccc3)c2)OCCO1
inactive: dose: 75.0 mg/kg/injection, schedule: Q01DX001 (ip), vehicle: saline 104 % of control | dose: 150.0 mg/kg/injection, schedule: Q01DX001 (ip), vehicle: saline 105 % of control

NC(=O)c1cc(N2CC2)c([N+](=O)[O-])cc1[N+](=O)[O-]
inactive: dose: 5.0 mg/kg/injection, schedule: Q01DX001 (ip), vehicle: other 110 % of control | dose: 10.0 mg/kg/injection, schedule: Q01DX001 (ip), vehicle: other 98 % of control | dose: 10.0 mg/kg/injection, schedule: Q01DX009 (ip), vehicle: saline 105 % of control | dose: 20.0 mg/kg/injection, schedule: Q01DX001 (ip), vehicle: other 101 % of control | dose: 20.0 mg/kg/injection, schedule: Q01DX009 (ip), vehicle: saline 105 % of control | dose: 40.0 mg/kg/injection, schedule: Q01DX001 (ip), vehicle: other 106 % of control | dose: 40.0 mg/kg/injection, schedule: Q01DX009 (ip), vehicle: saline 113 % of control | dose: 50.0 mg/kg/injection, schedule: Q01DX001 (ip), vehicle: other 94 % of control | dose: 80.0 mg/kg/injection, schedule: Q01DX001 (ip), vehicle: other 97 % of control | dose: 100.0 mg/kg/injection, schedule: Q01DX001 (ip), vehicle: other 96 % of control

COC(=O)c1cc(S(=O)(=O)c2cc(C)c(O)c(C(=O)OC)c2)cc(C)c1O
inactive: dose: 100.0 mg/kg/injection, schedule: Q04DX002 (ip), vehicle: carboxymethylcellulose (CMC) 92 % of control | dose: 200.0 mg/kg/injection, schedule: Q04DX002 (ip), vehicle: carboxymethylcellulose (CMC) 95 % of control | dose: 400.0 mg/kg/injection, schedule: Q04DX002 (ip), vehicle: carboxymethylcellulose (CMC) 95 % of control

CN(C)CCCCC(C#N)(c1ccccc1)c1ccccc1
inactive: dose: 15.0 mg/kg/injection, schedule: Q01DX001 (ip), vehicle: saline 88 % of control | dose: 30.0 mg/kg/injection, schedule: Q01DX001 (ip), vehicle: saline 92 % of control

CCCN(CCC)C(=O)CCl
inactive: [5] 109 % of control | [6] 95 % of control

[CH3][Sn]([CH3])([Cl])[Cl]
inactive: dose: 29.0 mg/kg/injection, schedule: Q01DX009 (ip), vehicle: saline 112 % of control

CC(=O)Oc1cc(OC(C)=O)c2ccccc2c1OC(C)=O
inactive: dose: 1.56 mg/kg/injection, schedule: Q04DX003 (ip), vehicle: saline 102 % of control | dose: 3.12 mg/kg/injection, schedule: Q04DX003 (ip), vehicle: saline 106 % of control | dose: 6.25 mg/kg/injection, schedule: Q04DX003 (ip), vehicle: saline 102 % of control | dose: 12.5 mg/kg/injection, schedule: Q01DX001 (ip), vehicle: saline 103 % of control | dose: 25.0 mg/kg/injection, schedule: Q01DX001 (ip), vehicle: saline 97 % of control | dose: 50.0 mg/kg/injection, schedule: Q01DX001 (ip), vehicle: saline 100 % of control

OC(c1ccccc1)(c1ccccc1)c1ccncc1
inactive: [2] 96 % of control

COc1ccc(CN2CCCN(Cc3ccc(OC)cc3)C2c2cc(I)cc(I)c2O)cc1
inactive: dose: 100.0 mg/kg/injection, schedule: Q01DX001 (ip), vehicle: acetone 96 % of control | dose: 200.0 mg/kg/injection, schedule: Q01DX001 (ip), vehicle: acetone 96 % of control | dose: 400.0 mg/kg/injection, schedule: Q01DX001 (ip), vehicle: acetone 94 % of control

CN(N=O)C(=O)Nc1ccc(F)cc1
inactive: dose: 6.25 mg/kg/injection, schedule: Q01DX Z (ip), vehicle: carboxymethylcellulose (CMC) 110 % of control | dose: 12.5 mg/kg/injection, schedule: Q01DX Z (ip), vehicle: carboxymethylcellulose (CMC) 103 % of control | dose: 25.0 mg/kg/injection, schedule: Q01DX Z (ip), vehicle: carboxymethylcellulose (CMC) 111 % of control | [1] 120 % of control

CCN(CC)CCN(C)CCN(CC)CC
inactive: dose: 50.0 mg/kg/injection, schedule: Q01DX009 (ip), vehicle: saline 91 % of control | [7] 102 % of control | dose: 100.0 mg/kg/injection, schedule: Q04DX003 (ip), vehicle: saline 93 % of control | [8] 101 % of control | dose: 200.0 mg/kg/injection, schedule: Q04DX003 (ip), vehicle: saline 98 % of control

Nc1ccc(N=Nc2ccc(S(=O)(=O)Nc3ccccn3)cc2)c(N)n1
inactive: [5] 96 % of control | [6] 102 % of control | [9] 105 % of control

O=C(/C=C\c1ccccc1)N1CCc2ccccc2C1
inactive: dose: 75.0 mg/kg/injection, schedule: Q04DX003 (ip), vehicle: saline 100 % of control | dose: 300.0 mg/kg/injection, schedule: Q04DX003 (ip), vehicle: saline 101 % of control

O=C(COc1ccc(Cl)c(Cl)c1)Nc1ccc[n+](Cc2ccc(S(=O)(=O)F)cc2Cl)c1
inactive: [3] 94 % of control

CCCCOc1ccc(C=Nc2ccc(CC)cc2)cc1
inactive: [3] 94 % of control | [4] 102 % of control | dose: 400.0 mg/kg/injection, schedule: Q01DX009 (ip), vehicle: saline with Tween-80 97 % of control

O=C(O)CO/N=C/c1ccccc1Cl
inactive: dose: 200.0 mg/kg/injection, schedule: Q04DX002 (ip), vehicle: Klucel (hydroxypropylcellulose) (HPC) 98 % of control | dose: 400.0 mg/kg/injection, schedule: Q04DX002 (ip), vehicle: Klucel (hydroxypropylcellulose) (HPC) 95 % of control

NNC(=O)CCO
inactive: [5] 103 % of control | [7] 89 % of control | [6] 105 % of control | [8] 100 % of control | [9] 94 % of control | dose: 400.0 mg/kg/injection, schedule: Q01DX009 (ip), vehicle: saline 96 % of control
